Laboratory results published in ChEMBL document CHEMBL1799917, “Isolation, sequencing, and structure-activity relationships of cyclotides” (J Nat Prod, 2010).
In brackets after ≈: the same amount, converted by molar mass. Where a SMILES comes first, the peptide text is derived from it. Bridges are numbered along the chain shown (N, C = ends).

Experiments:
CEM-SS (Homo sapiens) = assay: Cytotoxicity against human CEM-SS cells
[1] = tested on: Human immunodeficiency virus 1; assay: Antiviral activity against HIV1; format: functional, organism-based
Proteus vulgaris = assay: Antimicrobial activity against Proteus vulgaris ATCC 49132; format: functional
Candida tropicalis = assay: Antimicrobial activity against Candida tropicalis ATCC 37097; format: functional
Staphylococcus aureus = assay: Antimicrobial activity against Staphylococcus aureus ATCC 29213; format: functional
Kluyveromyces marxianus = assay: Antimicrobial activity against Candida kefyr ATCC 37095; format: functional
[2] = Hemolytic activity in human type A RBC; format: ADME, cell-based, Erythrocyte; conditions: human type A red blood cells, read-out: HD50 (the source's name)

Compound | EC50 [1] [nM] | IC50 (CEM-SS (Homo sapiens)) [nM] | also measured
CC[C@H](C)[C@@H]1NC(=O)[C@@H]2CSSC[C@@H]3NC(=O)[C@H](C(C)C)NC(=O)[C@H](CCCCN)NC(=O)[C@H](CO)NC(=O)[C@H](CCCCN)NC(=O)[C@@H]4CSSC[C@H](NC(=O)[C@H](CO)NC(=O)[C@H](CCC(=O)O)NC(=O)CNC(=O)[C@H](CSSC[C@H](NC(=O)CNC(=O)[C@H](C)NC(=O)[C@H](C(C)C)NC(=O)[C@H](CO)NC(=O)[C@H]([C@@H](C)O)NC1=O)C(=O)N[C@@H](CO)C(=O)N4)NC(=O)[C@@H]1CCCN1C(=O)[C@H]([C@@H](C)CC)NC(=O)CNC(=O)[C@H](CC(N)=O)NC(=O)[C@H](CCCNC(=N)N)NC(=O)[C@H](Cc1ccc(O)cc1)NC3=O)C(=O)N[C@@H](C(C)C)C(=O)N[C@@H](Cc1ccccc1)C(=O)N[C@@H]([C@@H](C)CC)C(=O)N1CCC[C@H]1C(=O)N2 [CIRCULIN C] (cyclo(AGCSCKSKVCYRNGIPCGESCVFIPCITSV); disulfide 3-17, 5-21, 10-26) | – | 500 | –
CC(C)C[C@@H]1NC(=O)[C@H](C(C)C)NC(=O)[C@H](Cc2ccc(O)cc2)NC(=O)[C@@H]2CSSC[C@@H]3NC(=O)[C@H]([C@@H](C)O)NC(=O)[C@@H]4CSSC[C@H](NC(=O)[C@H](C)NC(=O)[C@H]([C@@H](C)O)NC(=O)CNC(=O)[C@H](CC(N)=O)NC(=O)[C@H](CCCCN)NC(=O)[C@H](Cc5ccccc5)NC(=O)[C@H](CSSC[C@H](NC(=O)[C@@H]5CCCN5C1=O)C(=O)N[C@@H](Cc1ccccc1)C(=O)N[C@@H]([C@@H](C)O)C(=O)N[C@@H](C(C)C)C(=O)NCC(=O)N4)NC(=O)[C@H](CCC(N)=O)NC(=O)[C@H](CO)NC(=O)[C@H](CO)NC(=O)[C@H]([C@@H](C)O)NC3=O)C(=O)NCC(=O)N[C@@H](CCC(=O)O)C(=O)N[C@@H](CO)C(=O)N2 [CYCLOVIOLIN B] (cyclo(ACGESCYVLPCFTVGCTCTSSQCFKNGT); disulfide 2-16, 6-18, 11-23) | 130 | 560 | –
CC[C@H](C)[C@@H]1NC(=O)[C@H](C)NC(=O)[C@H](C)NC(=O)[C@H](CO)NC(=O)[C@H]([C@@H](C)CC)NC(=O)[C@@H]2CSSC[C@@H]3NC(=O)[C@H](C(C)C)NC(=O)[C@H](CCCCN)NC(=O)[C@H](CC(N)=O)NC(=O)[C@H](CCCCN)NC(=O)[C@@H]4CSSC[C@H](NC(=O)[C@H](CO)NC(=O)[C@H](CCC(=O)O)NC(=O)CNC(=O)[C@H](CSSC[C@H](NC(=O)CNC1=O)C(=O)N[C@@H](CO)C(=O)N4)NC(=O)[C@@H]1CCCN1C(=O)[C@H]([C@@H](C)CC)NC(=O)[C@H](C)NC(=O)[C@H](CCCNC(=N)N)NC(=O)[C@H](Cc1ccc(O)cc1)NC3=O)C(=O)N[C@@H](C(C)C)C(=O)N[C@@H](Cc1c[nH]c3ccccc13)C(=O)N[C@@H]([C@@H](C)CC)C(=O)N1CCC[C@H]1C(=O)N2 [CIRCULIN F] (cyclo(AAIGCSCKNKVCYRAIPCGESCVWIPCIS); disulfide 5-18, 7-22, 12-27) | – | 500 | –
CC[C@H](C)[C@@H]1NC(=O)[C@@H]2CSSC[C@@H]3NC(=O)[C@H](C(C)C)NC(=O)[C@H](CCCCN)NC(=O)[C@H](CC(N)=O)NC(=O)[C@H](CCCCN)NC(=O)[C@@H]4CSSC[C@H](NC(=O)[C@H](CO)NC(=O)[C@H](CCC(=O)O)NC(=O)CNC(=O)[C@H](CSSC[C@H](NC(=O)CNC(=O)[C@H](CC(C)C)NC(=O)[C@H](C)NC(=O)[C@H](C)NC(=O)[C@H](CO)NC1=O)C(=O)N[C@@H](CO)C(=O)N4)NC(=O)[C@@H]1CCCN1C(=O)[C@H]([C@@H](C)CC)NC(=O)CNC(=O)[C@H](CC(N)=O)NC(=O)[C@H](CCCNC(=N)N)NC(=O)[C@H](Cc1ccc(O)cc1)NC3=O)C(=O)N[C@@H](C(C)C)C(=O)N[C@@H](Cc1c[nH]c3ccccc13)C(=O)N[C@@H]([C@@H](C)CC)C(=O)N1CCC[C@H]1C(=O)N2 [CIRCULIN A] (cyclo(AALGCSCKNKVCYRNGIPCGESCVWIPCIS); disulfide 5-19, 7-23, 12-28) | – | 500 | MIC (Proteus vulgaris): 54.6 µM (≈ 172 µg/mL); MIC (Candida tropicalis): 19.4 µM (≈ 61.1 µg/mL); MIC (Staphylococcus aureus): 0.19 µM (≈ 0.599 µg/mL); MIC (Kluyveromyces marxianus): 18.6 µM (≈ 58.6 µg/mL); HC50 [2]: 1.02 mM
CC[C@H](C)[C@@H]1NC(=O)[C@H](CCCCN)NC(=O)[C@H](CC(=O)O)NC(=O)[C@H](Cc2cnc[nH]2)NC(=O)[C@H](Cc2ccc(O)cc2)NC(=O)[C@@H]2CSSC[C@@H]3NC(=O)[C@@H]4CCCN4C(=O)[C@H]([C@@H](C)CC)NC(=O)[C@H](Cc4c[nH]c5ccccc45)NC(=O)[C@H](C(C)C)NC(=O)[C@@H]4CSSC[C@H](NC(=O)[C@H](CCCCN)NC(=O)[C@H](CSSC[C@H](NC(=O)[C@@H]5CCCN5C1=O)C(=O)NCC(=O)N[C@@H](CCC(=O)O)C(=O)N[C@@H](CO)C(=O)N4)NC(=O)[C@H](CC(N)=O)NC(=O)[C@H](Cc1ccccc1)NC(=O)[C@H](C(C)C)NC(=O)[C@H](CO)NC(=O)[C@H]([C@@H](C)O)NC(=O)[C@H](CC(C)C)NC3=O)C(=O)N[C@@H](CCC(=O)O)C(=O)N[C@@H](CC(N)=O)C(=O)N[C@@H](CCCCN)C(=O)N[C@@H](C(C)C)C(=O)N2 [CIRCULIN E] (cyclo(CENKVCYHDKIPCGESCVWIPCLTSVFNCK); disulfide 1-17, 6-22, 13-29) | – | 500 | –
CC[C@H](C)[C@@H]1NC(=O)[C@H](CO)NC(=O)[C@H]([C@@H](C)O)NC(=O)[C@H](Cc2ccc(O)cc2)NC(=O)[C@@H]2CSSC[C@@H]3NC(=O)[C@H](C(C)C)NC(=O)[C@H](CCCCN)NC(=O)[C@H](CC(N)=O)NC(=O)[C@H](CCC(=O)O)NC(=O)[C@@H]4CSSC[C@H](NC(=O)[C@H](CO)NC(=O)[C@H](CCC(=O)O)NC(=O)CNC(=O)[C@H](CSSC[C@H](NC(=O)[C@H](CC(N)=O)NC(=O)[C@H](Cc5ccccc5)NC1=O)C(=O)N[C@@H](CCCCN)C(=O)N4)NC(=O)[C@@H]1CCCN1C(=O)[C@H]([C@@H](C)CC)NC(=O)[C@H](CCCCN)NC(=O)[C@H](CC(=O)O)NC(=O)[C@H](Cc1cnc[nH]1)NC(=O)[C@H](Cc1ccc(O)cc1)NC3=O)C(=O)N[C@@H](C(C)C)C(=O)N[C@@H](Cc1c[nH]c3ccccc13)C(=O)N[C@@H]([C@@H](C)CC)C(=O)N1CCC[C@H]1C(=O)N2 [CIRCULIN D] (cyclo(CENKVCYHDKIPCGESCVWIPCYTSIFNCK); disulfide 1-17, 6-22, 13-29) | – | 500 | –

Second part, led by results:

EC50 [1] [nM] | Compound | IC50 (CEM-SS (Homo sapiens)) [nM] | also measured
130 | CC[C@H](C)[C@@H]1NC(=O)CNC(=O)[C@H](CC(N)=O)NC(=O)[C@H](CCCNC(=N)N)NC(=O)[C@H](Cc2ccc(O)cc2)NC(=O)[C@@H]2CSSC[C@@H]3NC(=O)[C@@H]4CCCN4C(=O)[C@H]([C@@H](C)CC)NC(=O)[C@H](Cc4ccccc4)NC(=O)[C@H](C(C)C)NC(=O)[C@@H]4CSSC[C@H](NC(=O)[C@H](CO)NC(=O)[C@H](CSSC[C@H](NC(=O)[C@@H]5CCCN5C1=O)C(=O)NCC(=O)N[C@@H](CCC(=O)O)C(=O)N[C@@H](CO)C(=O)N4)NC(=O)CNC(=O)[C@H](C)NC(=O)[C@H](C(C)C)NC(=O)[C@H]([C@@H](C)O)NC(=O)[C@H]([C@@H](C)O)NC(=O)[C@H](CC(C)C)NC3=O)C(=O)N[C@@H](CCCCN)C(=O)N[C@@H](CC(N)=O)C(=O)N[C@@H](CCCCN)C(=O)N[C@@H](C(C)C)C(=O)N2 [CYCLOVIOLIN C] (cyclo(AGCSCKNKVCYRNGIPCGESCVFIPCLTTV); disulfide 3-17, 5-21, 10-26) | 560 | –
130 | CC[C@H](C)[C@@H]1NC(=O)[C@H](C)NC(=O)[C@H](C)NC(=O)[C@H](CO)NC(=O)[C@H]([C@@H](C)CC)NC(=O)[C@@H]2CSSC[C@@H]3NC(=O)[C@H](C(C)C)NC(=O)[C@H](CCCCN)NC(=O)[C@H](CC(N)=O)NC(=O)[C@H](CCCCN)NC(=O)[C@@H]4CSSC[C@H](NC(=O)[C@H](CO)NC(=O)[C@H](CCC(=O)O)NC(=O)CNC(=O)[C@H](CSSC[C@H](NC(=O)CNC1=O)C(=O)N[C@@H](CO)C(=O)N4)NC(=O)[C@@H]1CCCN1C(=O)[C@H](Cc1ccccc1)NC(=O)CNC(=O)[C@H](CC(N)=O)NC(=O)[C@H](CCCNC(=N)N)NC(=O)[C@H](Cc1ccc(O)cc1)NC3=O)C(=O)N[C@@H](C(C)C)C(=O)N[C@@H](Cc1ccccc1)C(=O)N[C@@H]([C@@H](C)CC)C(=O)N1CCC[C@H]1C(=O)N2 [CYCLOVIOLIN D] (cyclo(AAIGCSCKNKVCYRNGFPCGESCVFIPCIS); disulfide 5-19, 7-23, 12-28) | 560 | –
130 | CC[C@H](C)[C@@H]1NC(=O)[C@H](C)NC(=O)[C@H](C)NC(=O)[C@H](CO)NC(=O)[C@H]([C@@H](C)CC)NC(=O)[C@@H]2CSSC[C@@H]3NC(=O)[C@H](C(C)C)NC(=O)[C@H](CCCCN)NC(=O)[C@H](CC(N)=O)NC(=O)[C@H](CCCCN)NC(=O)[C@@H]4CSSC[C@H](NC(=O)[C@H](CO)NC(=O)[C@H](CCC(=O)O)NC(=O)CNC(=O)[C@H](CSSC[C@H](NC(=O)CNC1=O)C(=O)N[C@@H](CO)C(=O)N4)NC(=O)[C@@H]1CCCN1C(=O)[C@H]([C@@H](C)CC)NC(=O)[C@H](C(C)C)NC(=O)CNC(=O)[C@H](CC(N)=O)NC(=O)[C@H](CCCNC(=N)N)NC(=O)[C@H](Cc1ccc(O)cc1)NC3=O)C(=O)N[C@@H](C(C)C)C(=O)N[C@@H](Cc1ccccc1)C(=O)N[C@@H]([C@@H](C)CC)C(=O)N1CCC[C@H]1C(=O)N2 [CYCLOVIOLN A] (cyclo(AAIGCSCKNKVCYRNGVIPCGESCVFIPCIS); disulfide 5-20, 7-24, 12-29) | 560 | –
